A word on the Ki: it is the equilibrium dissociation constant of an inhibitor or competing ligand from its target. A lower Ki goes with a stronger hold on the target.

In this assay the target is human capsaicin receptor (VR1) (Homo sapiens, UniProt Q8NER1). The assay is described as follows: Capsaicin receptor binding assay ([3H]RTX competition, VR1-transfected HEK293 membranes).
human capsaicin receptor (VR1), sequence (Q8NER1 whole entry): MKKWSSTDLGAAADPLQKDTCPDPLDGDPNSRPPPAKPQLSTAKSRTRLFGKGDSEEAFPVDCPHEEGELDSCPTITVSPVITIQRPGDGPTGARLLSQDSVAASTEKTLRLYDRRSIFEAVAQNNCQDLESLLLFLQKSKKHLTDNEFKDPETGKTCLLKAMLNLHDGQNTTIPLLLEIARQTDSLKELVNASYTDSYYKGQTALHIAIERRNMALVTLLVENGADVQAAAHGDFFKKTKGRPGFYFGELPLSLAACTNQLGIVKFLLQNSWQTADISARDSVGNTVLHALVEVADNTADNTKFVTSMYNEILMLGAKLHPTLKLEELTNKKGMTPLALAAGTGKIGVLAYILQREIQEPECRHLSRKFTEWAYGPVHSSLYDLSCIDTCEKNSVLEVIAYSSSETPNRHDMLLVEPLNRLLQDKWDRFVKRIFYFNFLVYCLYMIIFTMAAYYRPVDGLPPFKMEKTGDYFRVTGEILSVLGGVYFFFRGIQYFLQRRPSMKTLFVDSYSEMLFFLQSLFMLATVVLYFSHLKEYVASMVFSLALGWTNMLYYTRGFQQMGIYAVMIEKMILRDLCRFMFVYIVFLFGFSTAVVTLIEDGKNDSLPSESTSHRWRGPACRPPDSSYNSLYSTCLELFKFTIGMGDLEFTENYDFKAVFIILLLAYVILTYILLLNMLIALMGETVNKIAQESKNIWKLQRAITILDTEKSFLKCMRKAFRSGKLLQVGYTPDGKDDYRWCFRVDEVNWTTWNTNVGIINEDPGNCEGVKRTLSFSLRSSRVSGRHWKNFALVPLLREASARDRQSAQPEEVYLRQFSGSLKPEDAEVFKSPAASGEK
`O=C(c1nc(Nc2ccc(C(F)(F)F)cc2)c2ccc(-c3ncccc3C(F)(F)F)nc2n1)N1CCCC1` [Compound 459, Pyrrolidin-1-yl-[4-(4-trifluoromethyl-phenylamino)-7-(3-trifluoromethyl-pyridifl-2-yl)-pyrido[2,3-d]pyrimidin-2-yl]-methanone] displayed a Ki of less than 1 µM.

`O=C(c1nc(Nc2ccc(C(F)(F)F)cc2)c2ccc(-c3ncccc3C(F)(F)F)nc2n1)N1CCCCC1` [Compound 460, Piperidin-1-yl-[4-(4-trifluoromethyl-phenylamino)-7-(3-trifluorornethyl-pyridin-2-yl)-pyrido[2,3-d]pyrimidin-2-yl]-methanone] gave a Ki of less than 1 µM.

Regarding `O=C(c1nc(Nc2ccc(C(F)(F)F)cc2)c2ccc(-c3ncccc3C(F)(F)F)nc2n1)N1CCOCC1` [Compound 461, Morpholin-4-yl-[4-(4-trifluoromethyl-phenylamino)-7-(3-trifluoromethyl-pyridin-2-yl)-pyrido[2,3-d]pyrimidin-2-yl]-methanone], the Ki is less than 1 µM.

`CC1CCN(C(=O)c2nc(Nc3ccc(C(F)(F)F)cc3)c3ccc(-c4ncccc4C(F)(F)F)nc3n2)CC1` [Compound 462, (4-Methyl-piperidin-1-yl)-[4-(4-trifluoromethyl-phenylamino)-7-(3-trifluoromethyl-pyridin-2-yl)-pyrido[2,3-d]pyrimidin-2-yl]-methanone] yielded a Ki of less than 1 µM.

Compound `O=C(c1nc(Nc2ccc(C(F)(F)F)cc2)c2ccc(-c3ncccc3C(F)(F)F)nc2n1)N1CCSCC1` [Compound 463, Thiomorpholin-4-yl-[4-(4-trifluoromethyl-phenylamino)-7-(3-trifluoromethyl-pyridin-2-yl)-pyrido[2,3-d]pyrimidin-2-yl]-methanone] yielded a Ki of less than 1 µM.

As to `C=CCN(C)C(=O)c1nc(Nc2ccc(C(F)(F)F)cc2)c2ccc(-c3ncccc3C(F)(F)F)nc2n1` [Compound 464, 4-(4-Trifluoromethyl-phenylamino)-7-(3-trifluoromethyl-pyridin-2-yl)-pyrido[2,3-d]pyrimidine-2-carboxyiic acid allyl-methyl-amide], the Ki is less than 1 µM.

`C=CCN(CC=C)C(=O)c1nc(Nc2ccc(C(F)(F)F)cc2)c2ccc(-c3ncccc3C(F)(F)F)nc2n1` [Compound 465, 4-(4-Trifluoromethyl-phenylamino)-7-(3-trifluoromethyl-pyridin-2-yl)-pyrido[2,3-d]pyrimidine-2-carboxylic acid diallylamide] gave a Ki of less than 1 µM.

In turn, `CCCN(CCC)C(=O)c1nc(Nc2ccc(C(F)(F)F)cc2)c2ccc(-c3ncccc3C(F)(F)F)nc2n1` [Compound 466, 4-(4-Trifluoromethyl-phenylamino)-7-(3-trifluoromethyl-pyridin-2-yl)-pyrido[2,3-d]pyrimidine-2-carboxylic acid dipropylamide] yielded a Ki of less than 1 µM.

On to `CN(C)C(=O)c1nc(Nc2ccc(C(F)(F)F)cc2)c2ccc(-c3ncccc3C(F)(F)F)nc2n1` [Compound 467, 4-(4-Trifluoromethyl-phenylamino)-7-(3-trifluoromethyl-pyridin-2-yl)-pyrido[2,3-d]pyrimidine-2-carboxylic acid dimethylamide], for which the Ki is less than 1 µM.

Compound `CC1(C)CCCC(NC(=O)c2nc(Nc3ccc(C(F)(F)F)cc3)c3ccc(-c4ncccc4C(F)(F)F)nc3n2)C1` (centres unmarked) [Compound 468, 4-(4-Trifluoromethyl-phenylamino)-7-(3-trifluoromethyl-pyridin-2-yl)-pyrido[2,3-d]pyrimidine-2-carboxylic acid (3,3-dimethyl-cyclohexyl)-amide] returned a Ki of less than 1 µM.

Compound `COCCN(CCOC)C(=O)c1nc(Nc2ccc(C(F)(F)F)cc2)c2ccc(-c3ncccc3C(F)(F)F)nc2n1` [Compound 469, 4-(4-Trifluoromethyl-phenylamino)-7-(3-trifluoromethyl-pyridin-2-yl)-pyrido[2,3-d]pyrimidine-2-carboxylic acid bis-(2-methoxy-ethyl)-amide] yielded a Ki of less than 1 µM.

The values above are taken from US20040156869A1, “2-substituted quinazolin-4-ylamine analogues” (Neurogen Corporation, priority 2002, published 2004).
